Results as given in patent US20220304307A1, “SYNERGISTIC MIXTURES FOR ARTHROPOD TOXICITY AND REPELLENCY” (University of Florida Research Foundation, Incorporated, priority 2019, published 2022).

Experiments:
[1] = system: Orlando insecticide-susceptible strain of Ae. aegypti (female mosquitoes); assay: Glass tube spatial repellency assay; assay type: in vivo, Aedes aegypti; settings: for mortality in repellency screening: 100 μg/cm^2, 1 hr exposure; for repellency EC50 (+TFA): applied as mixture with TFA (50 μg/cm^2); for repellency EC50 (+TFA) / repellency EC50: 1 hr; for repellency EC50: compound alone; for synergist ratio SR (EC50 compound alone/EC50 compound+TFA): repellency, TFA 50 μg/cm^2 as mixture
Protocol: (§1) The following assay was conducted according to the procedures of Jiang et al., 2019 (Jiang S., Yang L, and Bloomquist J (2019) High-throughput screening method for evaluating spatial repellency and vapor toxicity to mosquitoes. Med. Vet. Entomol.). For assessing behavioral repellency (FIG. 1), sixteen female Aedes aegypti mosquitoes were transferred to a glass tube (12.5 cm long, 2.5 cm outer diameter) with the ends covered with netting. Metofluthrin, bifenthrin, permethrin, pyrethrum, transfluthrin, deltamethrin, esfenvalerate, metofluthrin acid, bifenthrin acid, phenothrin acid, transchryanthemic acid, transfluthrin acid, deltamethrin acid, and fenvalerate acid were each dissolved in 1 mL of acetone and serial dilutions ranging from 30-0.01 μg/ml were made. Circular filter papers (5 cm^2) were saturated with 50 μL of each concentration and allowed 10 min for solvent evaporation. The filter papers were then placed in clear conical polypropylene caps and fixed to the end of the glass tubes. The netting prevented mosquito contact with the filter paper. Tubes were then aligned with a mark denoting the midline and the proportion of mosquitoes on the chemically treated side was scored at 15, 30, and 60 min. At the end of the test, the tube was placed in a cage and the ability of the mosquitoes to fly out of the tube was assessed for 30 min. […] This post-test evaluated whether any non-responding mosquitoes (not repelled) was due to intoxication or disorientation from the test chemical. For vapor toxicity, the assay was identical, except that mosquitoes were kept in the tube for 24 hr without the post-test at 1 hr, and the mortality was recorded at 24 hr.

[2] = system: OR (susceptible) strain of Ae. aegypti antenna; assay: Electroantennography (EAG) responses, OR strain; parameters: species or system Aedes aegypti; settings: 10 mg odorant, air puff
Text: (§2) Electroantennography (EAG) responses of OR (susceptible) and PR (resistant) strains of Ae. Aegypti were then obtained for TF, TFA, and TCA (FIGS. 10A and 10B). In these experiments, an air puff stimulus with odorant was blown over an antenna suspended between 2 electrodes and represented the summed electrical response of all the chemo-receptive hairs. All compounds gave responses, with TF the largest (FIG. 10A).

[3] = system: insecticide-susceptible Aedes aegypti (Orlando strain) females; assay: Glass tube vapor toxicity assay (24 hr mortality); settings: for LC50 (24 h vapor toxicity): pyrethroid alone
Protocol: as §1
Synergism ratio (SR)=LC50 pyrethroid/LC50 pyrethroid+EO.

[4] = system: pyrethroid-resistant Puerto Rico (PR) strain of Ae. aegypti; assay: Glass tube spatial repellency assay, resistant strain; assay type: in vivo, Aedes aegypti; settings: repellency resistance ratio; compound alone
Protocol: as §1
EC50 values were calculated from non-linear regression to a four parameter logistic equation (Prism, GraphPad Software, San Diego, Calif.) of the curves shown in FIG. 4. RR=resistance ratio. NA=data not yet available.

[5] = system: PR (resistant) strain of Ae. aegypti antenna; assay: Electroantennography (EAG) responses, PR strain; parameters: species or system Aedes aegypti; settings: 10 mg odorant, air puff
Text: as §2

female Ae. aegypti = assay: Human arm bite protection assay; assay type: in vivo, Aedes aegypti
Protocol: A human bite protection assay was performed according to see if the repellency observed in glass tubes extended to bite protection. The assay was run in accordance with that of Tsikolia et al. (Tsikolia M, Bernier UR, Coy M, Chalaire K, Becnel J, Agramonte N, Tabanca N, Wedge D, Clark G, Linthicum K, Swale D, and J. R. Bloomquist J (2013) Insecticidal and fungicidal properties of novel trifluoromethylphenyl amides. Pestic. Biochem. Physiol. 107, 138-147). Treated cloth patches were worn by human volunteers and the number of blood fed mosquitoes was determined after 1 min spent in a cage with 500 (±10%) female Ae. aegypti. Minimum Effective Dosage (MED in mg/cm^2) is the minimum amount required to prevent 99% of bites in three human volunteers (UF IRB #201602334). Synergist ratio (SR)=MED chemical alone/MED chemical+TFA (0.047 mg/cm^2) or TCA (0.094 mg/cm^2).

[6] = system: pyrethroid-resistant Puerto Rico strain of Ae. aegypti; assay: Glass tube vapor toxicity assay, resistant strain; assay type: in vivo, Aedes aegypti; settings: for resistance ratio RR, vapor toxicity: pyrethroid alone, Puerto Rico vs Orlando
Text: The netting prevented mosquito contact with the filter paper.
The vapor toxicity of metofluthrin alone and in combination with citronella oil (CO) on susceptible Orlando and pyrethroid-resistant Puerto Rico strains of Ae. aegypti was investigated. The results are provided in Table 10 and in FIGS. 26 and 27. […] Synergism ratio (SR)=LC50 metofluthrin/LC50 metofluthrin+citronella. […] Resistance ratio (RR)=LC50 metofluthrin[…] on Puerto Rico/LC50 metofluthrin on Orlando.
Next, the vapor toxicity of empenthrin applied to two strains of Aedes aegypti, the pyrethroid-susceptible Orlando and pyrethroid-resistant Puerto Rico strain, was investigated. Empenthrin was applied alone and in combination with citronella oil (100 μg/cm^2, a nontoxic exposure). The RR for empenthrin alone was 5.7-fold.

CC1(C)[C@H](C=C(Cl)Cl)[C@H]1C(=O)OCc1c(F)c(F)cc(F)c1F [Transfluthrin, reference compound]
mortality in repellency screening [1]: significant mortality
repellency EC50 (+TFA) [1]: 0.11 μg/cm^2
synergism of repellency with citronella ([1]; citronella at its EC20 (20 μg/cm^2)): not
repellency EC50 [1]: 0.5 μg/cm^2
synergist ratio SR (EC50 compound alone/EC50 compound+TFA) [1]: about 5
EAG response [2]: largest
synergism ratio of vapor toxicity, +TFA ([3]; TFA 50 μg/cm^2): 2.3
LC50 (24 h vapor toxicity) [3]: 0.16 μg/cm^2
LC50 +TFA ([3]; with TFA (50 μg/cm^2), 24 h): 0.07 μg/cm^2
RR (PR EC50/OR EC50) [4]: 4.7
EAG response in PR strain relative to OR [5]: reduced

CC(C)=C[C@@H]1[C@@H](C(=O)O)C1(C)C (relative stereo) [TCA, 1-R-trans-chrysanthemic acid]
repellency ([1]; TCA alone at 10 μg/cm^2): 25%
repellency EC50 (+TFA) [1]: 1.3 μg/cm^2
repellency EC50 [1]: 20 μg/cm^2
synergist ratio SR (EC50 compound alone/EC50 compound+TFA) [1]: 15
RR (PR EC50/OR EC50) [4]: 1.9
MED values Female 10 (female Ae. aegypti; as E30, volunteer one): 0.375 mg/cm^2
MED values Female 9 (female Ae. aegypti; as E30, volunteer two): 0.187 mg/cm^2
MED Mean (female Ae. aegypti; mean of three human volunteers): 0.312 mg/cm^2
MED values Male 4 (female Ae. aegypti; minimum amount preventing 99% of bites, treated cloth patch, 1 min in cage, mixtures with TFA 0.047 or TCA 0.094 mg/cm^2): 0.375 mg/cm^2

C#CC(OC(=O)C1C(C=C(C)C)C1(C)C)/C(C)=C/CC (centres unmarked) [empenthrin]
effect of citronella oil on resistance to vapor toxicity ([6]; citronella oil 100 μg/cm^2, Puerto Rico strain): reversed resistance
resistance ratio RR, vapor toxicity [6]: 5.7

C/C=C/C1C(C(=O)OCc2c(F)c(F)c(COC)c(F)c2F)C1(C)C (centres unmarked) [Metofluthrin, reference compound]
mortality in repellency screening [1]: significant mortality
resistance ratio RR, vapor toxicity, +citronella oil ([6]; LC50 metofluthrin+CO on Puerto Rico/LC50 metofluthrin on Orlando): 7.3
resistance ratio RR, vapor toxicity [6]: 50.7
synergism ratio of vapor toxicity, +citronella ([3]; in vivo): 7.6
LC50 (24 h vapor toxicity) [3]: 0.84 μg/cm^2
LC50 +citronella ([3]; with citronella, 24 h): 0.11 μg/cm^2
RR (PR EC50/OR EC50) [4]: 60
